Measurements as given in EPA's ToxValDB 9.5 (doi:10.2903/j.efsa.2016.4500).
≈ marks a conversion by molar mass, not a printed value.

Experiments:
Pimephales promelas = details: acute; duration: 96 hours; mortality
Tagia sp. = details: chronic/long-term; duration: 56 days; reproduction
Rattus norvegicus = details: for LD50: acute, mortality
Canidae = details: chronic; duration: 1 years; oral; Dog Other; gross pathology
Apis mellifera = details: acute, mortality
Oryctolagus sp. = details: reproduction developmental; clinical signs
Folsomia candida = details: chronic/long-term; duration: 28 days; reproduction
Oncorhynchus mykiss = details: acute; duration: 96 hours; mortality
Bibionidae = details: chronic/long-term; duration: 28 days
Aphidius rhopalosiphi = assay: LR50; higher = less toxic; details: not reported; mortality
Typhlodromus pyri = assay: LR50; higher = less toxic; details: not reported; mortality
[1] = chronic, duration: 2 years, organ weight

In the case of `O=C(O)COc1ccc(Cl)cc1Cl` [2,4-Dichlorophenoxyacetic acid], the LC50 (Pimephales promelas) is reported as 100 µg/mL (≈ 452 µM), the NOEC (Tagia sp.) is reported as 62.5 mg/kg and the LD50 (Rattus norvegicus) is reported as 486 mg/kg. The NOAEL (Rattus norvegicus; chronic) was 20.6 mg/kg-day, the NOAEL (Rattus norvegicus; [1]) was 2.48 mg/kg-day and the NOAEL (Canidae) was 2.04 mg/kg-day. The LD50 (Apis mellifera; dermal) was over 100 µg/piece, the LD50 (Apis mellifera; oral, unspecified) was 94 µg/piece and the NOAEL (Oryctolagus sp.) was 30 mg/kg-day.

With `Oc1ccc(Cl)cc1Cl` [2,4-Dichlorophenol] the NOEC (Folsomia candida) was 0.63 mg/kg.

With `O=C(O)CCCOc1ccc(Cl)cc1Cl` [2,4-Dichlorophenoxybutyric acid] the LC50 (Oncorhynchus mykiss) was 3 µg/mL (≈ 12 µM), the NOEC (Bibionidae) was 24.6 mg/kg and the NOEC (Tagia sp.) was 82.1 mg/kg. It also gave an LD50 (Rattus norvegicus; oral) of 1470 mg/kg, an NOAEL (Rattus norvegicus; [1]) of 2.48 mg/kg-day and an NOAEL (Rattus norvegicus; reproduction developmental, reproduction) of 22.5 mg/kg-day. It also gave an NOAEL (Canidae) of 2.04 mg/kg-day, an LD50 (Apis mellifera; dermal) of over 100 µg/piece and an LD50 (Apis mellifera; oral, unspecified) of over 100 µg/piece. For the same compound, the NOAEL (Oryctolagus sp.) was 30 mg/kg-day, the LD50 (Colinus virginianus; acute, oral, mortality) was 1540 mg/kg and the NOEC (Colinus virginianus; chronic) was 101 mg/kg-day. For the same compound, the LR50 (Aphidius rhopalosiphi) was over 1800 g/ha and the LR50 (Typhlodromus pyri) was over 1800 g/ha.
